Experiment [1] concerns SH-SY5Y cells overexpressing α-synuclein. Description: α-synuclein toxicity in SH-SY5Y cells infected with α-synuclein-expressing adenovirus (Trypan blue, MTT). Format: cell-based. How it is done: Viral Infection: Viral infection and MTT assay in SH-SY5Y cells: The viruses were amplified and purified according to the published procedure. SH-SY5Y cells were grown on 100 mm petri-dishes and induced with 100 nM retinoic acid for 3-5 days before the virus infection with M.I.O at 75. Viruses were diluted with DPBS to desired M.I.O. After four hours of incubation, 10 ml growth medium was added. On the second day, cells were splitted into 96-well plates and treated with compounds for next 48 hours. The growth medium in each well was replaced with growth medium with 5 ug/ml MTT. Medium was removed after three hours incubation, and 200 ul isopropyl (0.04N HCl) was added into each well. The signal was read at 570 nm.
Viable cell counting: At stated time points, SH-SY5Y cells were trypsinized with 100 ul trypsin-EDTA for 1 minute and neutralized with 400 ul growth medium. Cell suspension was made up by mixing 0.2 ml of cells in growth medium, 0.3 ml of HBSS and 0.5 ml of 0.4% Trypan Blue solution. Viable cell numbers were counted by standard cell counting chamber.
Since α-synuclein neurotoxicity is dose-dependent, it follows that accumulation of α-synuclein, caused by UCH-L1 farnesylation, should promote its toxicity. […] These cells express high endogenous levels of UCH-L1. […] The unit of y-axis is 10^5/ml. (F) Cell viability was assessed by the amount of metabolic activity using MTT assay. […]

Experiment [2] deals with α-synuclein in SH-SY5Y cells. Description: α-synuclein accumulation in infected SH-SY5Y cells (Western blot). The note with it: SH-SY5Y cells infected with α-synuclein adenovirus, normalized to actin. In kind it is cell-based. How it is done:
Western Blotting: Following transfer of SDS gels onto NC membrane, all membranes were blocked with 5% non-fat milk in TBST (50 mM Tris-HCl pH7.4, 150 mM NaCl, 0.1% Tween 20), and incubated with primary antibody overnight with 1% BSA in TBST, washed three times with TBST, and incubated with horseradish peroxidase-conjugated secondary antibody for 1 hour (Promega). Bound antibodies were detected using enhanced chemiluminascence (NEM).
Since α-synuclein neurotoxicity is dose-dependent, it follows that accumulation of α-synuclein, caused by UCH-L1 farnesylation, should promote its toxicity. […] These cells express high endogenous levels of UCH-L1. […] The unit of y-axis is 10^5/ml. (F) Cell viability was assessed by the amount of metabolic activity using MTT assay. […] The effect of FTI-277 on the α-synuclein accumulation in the SH-SY5Y infected with α-synuclein-expressing adenovirus were analyzed by Western blotting (B) and the amount of α-synuclein (C) was quantified using NIH Image program and normalized against the amount of actin.

The next experiment concerns UCH-L1 in SH-SY5Y cells. Description: UCH-L1 membrane association and level in SH-SY5Y cells (2D electrophoresis, Western blot). In kind it is cell-based. How it is done: Membrane fractionation: Cells were harvested by scraping and washed with PBS. Cell pellet was suspended in lysis buffer (50 mM Tris-HCl, 1 mM EDTA) supplemented with protease inhibitor cocktail (Sigma) and homogenized by passing through 26G needles 10 times. Suspension was clarified by spinning at 600 g for 5 minutes. Clarified suspension was ultracentrifuged at 100,000 g for 2 hours and separated into membrane and cytosol. Membrane fraction was washed with washing buffer (50 mM Tris-HCl, 1 mM EDTA 1 M NaCl), and pelleted each time with bench-top centrifuge.
2D electrophoresis: For the isolation of total cellular protein, cultured SH-SY5Y cells maintained as described above were rinsed with ice-cold PBS. Cells were lysed in 1 ml dSDS buffer (50 mM Tris-HCl, pH 8.0 0.1% SDS) supplemented with protease inhibitor cocktail. Lysates were boiled for 3 min, and were treated with Dnase and Rnase as described. Lysates were precipitated with ice-cold acetone for at least 2 hours, and pellets were resuspended in 2D sample buffer (8M urea, 0.5% CHAPS, 0.2% DTT, 0.5% IPG buffer, 0.002% bromophenol blue). 2D electrophoresis was carried out according to manufacture's protocol (Amersham Life Science). 7 cm pH 4-7 strips were used. For SH-SY5Y membrane fraction, culture SH-SY5Y cells were rinsed with cold PBS and harvested with lysis buffer (50 mM Tris-HCl, pH 8.0, 1 mM ZnAc2, 250 mM sucrose). Lysate was passed through 25G needles for several times and spun at 1000 g for 5 min. Supernatant was centrifuged at 200,000 g for 2 hours. Pellet was extensively washed with lysis buffer and extracted with cold acetone. Pellet was resuspended in 2D sample buffer.
This species was presumably the fully processed species: farnesylated, truncated and C-terminally methylated.

Experiment [3] deals with primary dopaminergic cultures. Description: α-synuclein toxicity in primary dopaminergic cultures. In kind it is cell-based.
The subject of experiment [4] is α-synuclein in COS-7 cells. Description: α-synuclein degradation assay in COS-7 cells. In kind it is cell-based. From the text:
Plasmids: C220S cDNA was generated by PCR site-specific mutagenesis. For the PCR, the 5′ primer is uchforw SEQ ID NO: 1 ([…]), and 3′ primer is uchc220s SEQ ID NO:2 (CTAAGA […]). Wt UCH-L1 served as the template. The PCR fragment was inserted into pcDNA vector. For S 18YC220S mutant, S 18Y UCH-L1 served as the template in PCR. For the FLAG tagged UCH-L1, the 5′ primer is FLAGuchforw SEQ ID NO: 3 ([…] CGATGGAG), and the 3′ primer is uchrev SEQ ID NO: 4 ([…]). Wt UCH-L1 or C220S served as the template. PCR fragment was purified and inserted into pcDNA vector. For the FLAG tagged UCH-L3, the 5′ primer is L3HindIII SEQ ID NO: 5 (CTAAAGCTTATGGACTAC […]), the 3′ primer is L3XhoISAA SEQ ID NO: 6 ([…]). […] After 24 hours of incubation, the cells were lysed with Tris buffer (50 mM Tris, 2% SDS, 0.1% NP-40), and subjected to SDS-PAGE, followed by quantitative Western blotting.
The C220S mutation eliminated the ability of S118 to promote α-synuclein accumulation in COS-7 cells but had no effect on the S18Y polymorph (FIG. 2, panel C): the relative amount of 16 kDa α-synuclein was quantified and normalized against the amount of actin in transfected COS-7 cells with the presence of UCH-L1 variants. […]

The next experiment deals with α-synuclein. The experiment is described as follows: α-synuclein sandwich ELISA in brain fractions of α-synuclein transgenic mice. In kind it is in vivo. How it is done: (§1) Farnesyl transferase inhibitors Zarnestra and OSI-754 were administered to mice of the α-synuclein transgenic line described in Masliah et al. (Masliah et al. “Dopaminergic loss and inclusion body formation in alpha-synuclein mice: implications for neurodegenerative disorders” Science 287(5456): 1265-69, 2000; incorporated herein by reference). Animals from this line have α-synuclein neuronal inclusions in the cortex, hippocampus, and the olfactory bulb (Masliah et al. “Dopaminergic loss and inclusion body formation in alpha-synuclein mice: implications for neurodegenerative disorders” Science 287(5456): 1265-69, 2000; incorporated herein by reference). Transgenic mice were orally administered either FTI in 20% cyclodextrin solution or the same volume of vehicle alone twice a day for 30 or 90 days. In some cases, non-transgenic mice also received vehicle twice a day for 30 to 90 days. At the end of treatment, mice were sacrificed, and the brains removed and hemisected. One hemisphere of each was fixed in 4% paraformaldehyde/PBS (pH 7.4), cryoperserved, then sectioned for histology. The other hemisphere was subdivided into four brain regions, including the cortex and hippocampus, that were homogenized and processed into cytoplasmic and membrane fractions.
Total α-synuclein levels were analyzed by a sandwich ELISA assay similar to one previously described (El-Agnaf et al. “Detection of oligomeric forms of alpha-synuclein protein in human plasma as a potential biomarker for Parkinson's disease” FASEB J. 20(3):419-25, 2006; incorporated herein by reference). In the cortex of vehicle treated animals, α-synuclein protein levels in the α-synuclein transgenic line are greater than in non-transgenic mice in both cytoplasmic (FIG. 10) and membrane fractions (FIG. 11). Transgenic mice that received Zarnestra had lower α-synuclein protein levels than vehicle-treated transgenic mice and nearly the same as that detected in the non-transgenic group in both the cytoplasmic (FIG. 10) and membrane fractions (FIG. 11), which represent soluble and insoluble α-synuclein, respectively. Farnesylated UCH-L1 in the cortex is contained in the membrane fraction. The amount of UCH-L1 was determined by quantitative Western Blot.

The test system of a further experiment is α-synuclein inclusions. The experiment is described as follows: Inclusion histology in α-synuclein transgenic mice (α-synuclein and ubiquitin immunostaining, Campbell-Switzer). In kind it is in vivo. How it is done:
as §1
Formation of α-synuclein inclusions in the cortex and hippocampus was probed by immunostaining with an antibody for human α-synuclein. Cells positive for human α-synuclein were quantified. […] These regions were also analyzed for ubiquitin-immunoreactive inclusions and by the Campbell Switzer method of silver staining. Ubiquitin is known to be a constituent of Lewy bodies and in the α-synculein inclusions found in the transgenic mouse line used in the study (Masliah et al. “Dopaminergic loss and inclusion body formation in alpha-synuclein mice: implications for neurodegenerative disorders” Science 287(5456): 1265-69, 2000; incorporated herein by reference). […] Campbell-Switzer staining is a general marker of Lewy Body type inclusions (Uchihara et al. “Silver stainings distinguish Lewy bodies and glial cytoplasmic inclusions: comparison between Gallyas-Braak and Campbell-Switzer methods” Acta Neuropathol (Berl) 110(3):255-60, 2005; incorporated herein by reference).
Formation of α-synuclein inclusions in the cortex and hippocampus was probed by immunostaining with an antibody for human α-synuclein. Cells positive for human α-synuclein were quantified.

A further experiment concerns farnesylated UCH-L1. Description: Farnesylated UCH-L1 in cortex membrane fraction of α-synuclein transgenic mice (quantitative Western blot). Format: in vivo. The note with it: 35 mg/kg twice a day, 30 days. How it is done:
Farnesyl transferase inhibitors Zarnestra and OSI-754 were administered to mice of the α-synuclein transgenic line described in Masliah et al. (Masliah et al. “Dopaminergic loss and inclusion body formation in alpha-synuclein mice: implications for neurodegenerative disorders” Science 287(5456): 1265-69, 2000; incorporated herein by reference). Animals from this line have α-synuclein neuronal inclusions in the cortex, hippocampus, and the olfactory bulb (Masliah et al. “Dopaminergic loss and inclusion body formation in alpha-synuclein mice: implications for neurodegenerative disorders” Science 287(5456): 1265-69, 2000; incorporated herein by reference). […]
Total α-synuclein levels were analyzed by a sandwich ELISA assay similar to one previously described (El-Agnaf et al. “Detection of oligomeric forms of alpha-synuclein protein in human plasma as a potential biomarker for Parkinson's disease” FASEB J. 20(3):419-25, 2006; incorporated herein by reference). […] Transgenic mice that received Zarnestra had lower α-synuclein protein levels than vehicle-treated transgenic mice and nearly the same as that detected in the non-transgenic group in both the cytoplasmic (FIG. 10) and membrane fractions (FIG. 11), which represent soluble and insoluble α-synuclein, respectively. […] The amount of UCH-L1 was determined by quantitative Western Blot. […]

The mark [5] stands for this setting: α-synuclein transgenic mice, summary, dose not given.

Entries after “also recorded” stand apart in the source; their conditions may differ.

Regarding `COC(=O)[C@H](CCSC)NC(=O)c1ccc(NC[C@@H](N)CS)cc1-c1ccccc1` [FTI-277], the “loss of cells (α-synuclein toxicity)” value in experiment [1] was “inhibits synuclein toxicity; also recorded: significantly decreased loss of cells”. In addition, the “amount of α-synuclein” value in experiment [2] was “reduced the amount of α-synuclein”. The “total amount of UCH-L1” value with UCH-L1 in SH-SY5Y cells is listed as “reduced the total amount of UCH-L1”. Further, in the experiment with UCH-L1 in SH-SY5Y cells (compared to DMSO), the “amount of cytosolic UCH-L1” value is recorded as “without affecting” and the “amount of membrane bound UCH-L1” value was “significant decrease; also recorded: reducing the amount of membrane-associated protein”. Further, in the experiment on UCH-L1 in SH-SY5Y cells (pulse-chase), the “rate of turnover of UCH-L1” value is “increased its rate of turnover”. In addition, the α-synuclein toxicity entry in experiment [3] is “inhibit α-synuclein toxicity”. In experiment [4] (COS-7 cells), the α-synuclein levels entry was “lowers α-synuclein levels”.
With `Cn1cncc1C(N)(c1ccc(Cl)cc1)c1ccc2c(c1)c(-c1cccc(Cl)c1)cc(=O)n2C` (centres unmarked) [Zarnestra], in the experiment with α-synuclein (cortex, cytoplasmic and membrane fractions, 35 mg/kg twice a day, 30 days), the “levels of α-synuclein protein (ELISA)” value is on record as “decreased levels of α-synuclein protein”. In addition, the “levels of α-synuclein in the cortex” value in the experiment on α-synuclein (setting [5]) is “decrease levels of α-synuclein in the cortex”. Besides, in the experiment on α-synuclein inclusions (35 mg/kg twice a day, 30 days), the “Campbell-Switzer stained inclusions versus vehicle” value was “fewer inclusions” and the “ubiquitin-immunoreactive inclusions versus vehicle” value is “fewer ubiquitin-immunoreactive inclusions”. Also, the inclusions versus vehicle entry in the experiment on α-synuclein inclusions (35 mg/kg twice a day, 30 days, oral) is listed as “fewer inclusions”. In addition, in the experiment with α-synuclein inclusions (cortex and hippocampus, 35 mg/kg twice a day, 30 days), the “α-synuclein-positive cells per mm^2 versus vehicle” value is reported as “significantly fewer”. Besides, in the experiment on α-synuclein inclusions (setting [5]), the inclusions versus vehicle result is listed as “fewer inclusions”. The “amount of farnesylated UCH-L1” value in the experiment on farnesylated UCH-L1 is given as “decreased the amount of farnesylated UCH-L1”.
For the molecule `CC(=O)N[C@@H](CSC(=O)[C@]1([C@@H](O)C(C)C)NC(=O)[C@H](C)[C@@H]1O)C(=O)O` [lactacystin], the “accumulation of α-synuclein” value in experiment [4] (transfected COS-7 cells, 35 μM lactacystin, 24 hours) is given as 100%.

Source of the values: patent US8232402B2, “Quinolinone farnesyl transferase inhibitors for the treatment of synucleinopathies and other indications” (Link Medicine Corporation, priority 2008, dated 2012).
